The record followed here is ChEMBL document CHEMBL3046312, “Synthesis and biologic evaluation of new 3-phenoxyazetidin-2-one derivatives as selective cyclooxygenase-2 inhibitors” (Med Chem Res, 2013).

For this assay, the target named is T1, Prostaglandin G/H synthase 1 (Ovis aries, UniProt P05979).
T1 sequence (P05979 whole entry): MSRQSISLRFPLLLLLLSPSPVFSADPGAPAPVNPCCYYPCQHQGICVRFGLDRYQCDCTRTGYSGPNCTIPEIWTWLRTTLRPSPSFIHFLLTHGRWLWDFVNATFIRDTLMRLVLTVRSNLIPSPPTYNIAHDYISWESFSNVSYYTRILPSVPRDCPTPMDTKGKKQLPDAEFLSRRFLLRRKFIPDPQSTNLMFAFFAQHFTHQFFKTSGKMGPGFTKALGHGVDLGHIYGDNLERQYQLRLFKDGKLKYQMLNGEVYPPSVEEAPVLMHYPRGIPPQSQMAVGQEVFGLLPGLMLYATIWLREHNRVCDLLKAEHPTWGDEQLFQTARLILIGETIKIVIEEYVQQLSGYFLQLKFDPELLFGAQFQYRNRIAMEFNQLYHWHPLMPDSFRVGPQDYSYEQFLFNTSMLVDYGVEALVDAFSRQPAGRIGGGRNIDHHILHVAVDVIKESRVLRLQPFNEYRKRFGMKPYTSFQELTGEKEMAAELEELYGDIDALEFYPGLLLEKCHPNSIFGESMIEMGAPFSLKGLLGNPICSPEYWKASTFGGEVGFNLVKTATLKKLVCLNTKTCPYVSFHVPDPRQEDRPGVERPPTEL
Kind of assay: Inhibition of Ovis aries (sheep) cyclooxygenase-1 using arachidonic acid as substrate by chemiluminescent assay.

`CS(=O)(=O)c1ccc([C@@H]2[C@H](Oc3ccccc3)C(=O)N2C2CCCCC2)cc1` (relative stereo) came in with an IC50 of 19.5 µM.

Compound `CC(C)N1C(=O)[C@@H](Oc2ccccc2)[C@H]1c1ccc(S(C)(=O)=O)cc1` (relative stereo) displayed an IC50 of 21.8 µM.

`CCCCCN1C(=O)[C@@H](Oc2ccccc2)[C@H]1c1ccc(S(C)(=O)=O)cc1` (relative stereo) had an IC50 of 21.2 µM.

`CS(=O)(=O)c1ccc([C@@H]2[C@H](Oc3ccccc3)C(=O)N2c2ccccc2)cc1` (relative stereo) showed an IC50 of 19.9 µM.

`COc1ccc(N2C(=O)[C@@H](Oc3ccccc3)[C@H]2c2ccc(S(C)(=O)=O)cc2)cc1` (relative stereo) showed an IC50 of 19.2 µM.

The compound `CS(=O)(=O)c1ccc([C@@H]2[C@H](Oc3ccccc3)C(=O)N2c2ccc(F)cc2)cc1` (relative stereo) had an IC50 of 19 µM.

As for `Cc1ccc(N2C(=O)[C@@H](Oc3ccccc3)[C@H]2c2ccc(S(C)(=O)=O)cc2)cc1` (relative stereo), half-maximal inhibition (IC50) was put at 18.1 µM.

Compound `CCCCN1C(=O)[C@@H](Oc2ccccc2)[C@H]1c1ccc(S(C)(=O)=O)cc1` (relative stereo) yielded an IC50 of 20.9 µM.

With `CS(=O)(=O)c1ccc([C@@H]2[C@H](Oc3ccccc3)C(=O)N2c2ccc(Cl)cc2)cc1` (relative stereo), the IC50 was 18.3 µM.

`CCCN1C(=O)[C@@H](Oc2ccccc2)[C@H]1c1ccc(S(C)(=O)=O)cc1` (relative stereo) gave an IC50 of 21.7 µM.

Broadly, the IC50 is the midpoint of a concentration-inhibition curve. A lower IC50 goes with greater potency in that assay.
